The numbers were not newly measured in patent US12201732B2, “Transdermal patches for hangover minimization and/or recocery, and/or sleep improvement” (GameChanger Patch Co., priority 2020, dated 2025), which cites them from elsewhere.

For series [1] the following is noted: recent study.
The conditions of series [2]: oral supplementation.

On to `N[C@@H](CS)C(=O)O` [L-cysteine], for which, in series [1], the effect on hangover result is recorded as “mitigate hangover effects”.
As for `N[C@@H](CCC(=O)N[C@@H](CS)C(=O)NCC(=O)O)C(=O)O` [glutathione], the “share metabolized by the human stomach in the first pass” value in series [2] is recorded as at least 90%.
